From US6339088B1, “Composition for treatment of external secretion disorders except hypol acrimation” (R-Tech Ueno. Ltd., priority 1999, dated 2002) come the findings set out here.

In one assay the test system is diabetic patient. Put plainly: Saliva secretion in a diabetic patient after instillation of 0.3% eye drops. Format: in vivo, human. Conditions: 0.3% eye drops instilled four times a day, sixth day after start of administration. The source says:
[3-(4-Bromo-2-fluorobenzyl)-7-chloro-2,4-dioxo-1,2,3,4-tetrahydroquinazolin-1-yl]acetate, a compound represented by the general formula (II) having aldose reductase-inhibiting effect as an active ingredient was used for preparation of a 0.3% eye drops.
The 0.3% eye drops was instilled to a diabetic patient four times a day.

The test system of the next assay is Male Sprague-Dawley rats. Put plainly: Effect on saliva secretion in rats (filter-paper infiltration distance). The assay is classed as in vivo, rat. Conditions: 50 μL of 0.3% solution intraorally three times a day on Day 1 and 2, measured Day 3 one hour after administration. As for the experimental part: [3-(4-Bromo-2-fluorobenzyl)-7-chloro-2,4-dioxo-1,2,3,4-tetrahydroquinazolin-1-yl]acetate, a compound represented by the general formula (II) having aldose reductase-inhibiting effect as an active ingredient was used for preparation of a 0.3% solution.
Male Sprague-Dawley rats (aged 7 weeks) were used. The rats were intraorally administered with 50 μL of the 0.3% solution or distilled water three times a day (10:00, 14:00, 18:00) on Day 1 and Day 2. On Day 3, the time upon lapse of one hour after the administration at 10:00 and 14:00, a strip of filter-paper (Schirmer Tear Production Measuring Strips: SHOWA YAKUHIN KAKO CO., LTD.) with the length of 37 mm and width of 5 mm was inserted between the lower teeth gums and the lower jaw of the rat to absorb the saliva into the filter-paper. The infiltration distance of the saliva into the filter-paper was measured every 1 minute for 5 minutes.

In the case of `O=C(O)Cn1c(=O)n(Cc2ccc(Br)cc2F)c(=O)c2ccc(Cl)cc21` [formula (II), [3-(4-bromo-2-fluorobenzyl)-7-chloro-2,4-dioxo-1,2,3,4-tetrahydroquinazolin-1-yl]acetate], the saliva secretion result in the assay with diabetic patient is given as “obvious sthenia of saliva secretion”. Besides, in the assay on Male Sprague-Dawley rats (after 1 min.), the “The infiltration distance of the saliva into filter-paper, mm, mean ± S.E., after 1 min.” value worked out at 8.1 ± 1.5 mm. Moreover, in the assay on Male Sprague-Dawley rats (after 2 min.), the “The infiltration distance of the saliva into filter-paper, mm, mean ± S.E., after 2 min.” value is listed as 10.6 ± 1.8 mm. Moreover, the “The infiltration distance of the saliva into filter-paper, mm, mean ± S.E., after 3 min.” value with Male Sprague-Dawley rats (after 3 min., * P<0.05 vs control) is given as 12.6 ± 2.0* mm. For the same molecule, the “The infiltration distance of the saliva into filter-paper, mm, mean ± S.E., after 4 min.” value with Male Sprague-Dawley rats (after 4 min., * P<0.05 vs control) was 13.6 ± 2.1* mm. Also, in the assay with Male Sprague-Dawley rats (after 5 min.), the “The infiltration distance of the saliva into filter-paper, mm, mean ± S.E., after 5 min.” value worked out at 14.5 ± 2.3 mm.
